In US20240279214A1, “ALPHA4 BETA7 INEGRIN ANTAGONISTS AND USES THEREOF” (XinThera, Inc., priority 2022, published 2024):

The compounds below were run against T1, a4b7 integrin interaction with MadCAM-1 (Homo sapiens, UniProt P13612+P26010) (assay: a4b7 Cell Capture Assay (RPMI8866 cells on MAdCAM-1 Fc coated plates)). Details: 50% human serum, 1 mM MgCl2, 1 hour incubation, CellTiter-Glo luminescence, read-out: a4B7 cell capture assay RMPI8866-MadCAM EC50.
T1 construct: capture of a4b7 integrin expressing cells, RPMI8866; endogenous in cells; host or cells: RPMI8866
T1 sequence (P13612 34-1032): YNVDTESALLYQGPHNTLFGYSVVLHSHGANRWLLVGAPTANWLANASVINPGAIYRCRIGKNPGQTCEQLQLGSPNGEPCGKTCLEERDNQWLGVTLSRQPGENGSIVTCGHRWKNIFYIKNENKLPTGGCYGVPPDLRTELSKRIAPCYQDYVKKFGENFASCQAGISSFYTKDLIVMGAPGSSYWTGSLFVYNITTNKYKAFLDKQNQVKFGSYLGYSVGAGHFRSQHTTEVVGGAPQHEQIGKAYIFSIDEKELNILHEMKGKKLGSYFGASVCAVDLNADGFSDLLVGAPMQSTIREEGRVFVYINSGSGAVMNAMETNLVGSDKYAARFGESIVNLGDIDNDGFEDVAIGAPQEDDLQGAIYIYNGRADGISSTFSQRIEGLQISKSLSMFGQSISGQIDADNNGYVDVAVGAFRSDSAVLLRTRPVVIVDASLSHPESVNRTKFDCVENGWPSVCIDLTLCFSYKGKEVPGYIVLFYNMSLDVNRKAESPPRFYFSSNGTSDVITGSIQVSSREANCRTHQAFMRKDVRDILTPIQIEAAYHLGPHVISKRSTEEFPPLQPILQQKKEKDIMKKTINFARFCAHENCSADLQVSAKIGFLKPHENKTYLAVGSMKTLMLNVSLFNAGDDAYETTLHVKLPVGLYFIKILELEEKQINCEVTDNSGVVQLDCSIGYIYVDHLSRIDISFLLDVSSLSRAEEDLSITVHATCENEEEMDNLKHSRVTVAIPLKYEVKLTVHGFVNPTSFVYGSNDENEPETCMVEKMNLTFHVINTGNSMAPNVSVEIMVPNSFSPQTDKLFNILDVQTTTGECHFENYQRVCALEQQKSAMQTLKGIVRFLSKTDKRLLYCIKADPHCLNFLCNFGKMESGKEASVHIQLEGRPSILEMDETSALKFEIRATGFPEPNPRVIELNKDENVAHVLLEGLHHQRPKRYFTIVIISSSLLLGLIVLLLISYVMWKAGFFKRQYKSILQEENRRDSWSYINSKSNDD
T1 sequence (P26010 20-798): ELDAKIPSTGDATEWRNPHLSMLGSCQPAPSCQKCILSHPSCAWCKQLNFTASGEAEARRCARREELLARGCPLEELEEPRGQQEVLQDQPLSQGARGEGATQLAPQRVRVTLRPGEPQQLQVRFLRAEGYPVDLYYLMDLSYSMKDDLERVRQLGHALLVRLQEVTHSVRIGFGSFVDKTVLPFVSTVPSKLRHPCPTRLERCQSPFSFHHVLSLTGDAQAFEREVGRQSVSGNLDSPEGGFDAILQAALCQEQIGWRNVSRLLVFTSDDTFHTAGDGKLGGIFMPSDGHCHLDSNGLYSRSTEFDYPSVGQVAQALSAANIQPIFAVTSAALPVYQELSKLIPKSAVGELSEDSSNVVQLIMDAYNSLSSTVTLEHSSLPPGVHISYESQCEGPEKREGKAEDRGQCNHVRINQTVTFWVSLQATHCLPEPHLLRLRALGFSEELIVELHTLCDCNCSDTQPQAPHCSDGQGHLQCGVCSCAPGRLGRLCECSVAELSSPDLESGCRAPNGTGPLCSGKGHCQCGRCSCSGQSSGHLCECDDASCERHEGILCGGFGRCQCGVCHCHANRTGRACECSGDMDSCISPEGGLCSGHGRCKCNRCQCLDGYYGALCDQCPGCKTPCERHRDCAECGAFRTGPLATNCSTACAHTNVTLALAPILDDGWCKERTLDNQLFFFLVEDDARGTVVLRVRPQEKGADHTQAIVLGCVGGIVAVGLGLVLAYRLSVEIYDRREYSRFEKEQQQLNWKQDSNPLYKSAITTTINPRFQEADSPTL
Type: cell-based
Method: The potency of inhibitors in preventing a4b7 integrin interaction with MadCAM-1 was measured by monitoring the capture of a4b7 integrin expressing cells, RPMI8866, on recombinant human MAdCAM-1 Fc chimera protein-coated plates. The protein was a fusion between human MAdCAM-1 (Met1-Gln333, Accession #AAY82472) and human IgG1 (Pro100-Lys330)] (R&D Systems, Catalog #6056-MC). 96-well plates (Thermofisher, Catalog #136102) were coated with the recombinant protein by dispensing 100 μL (1.0 μg/mL) per well. After a quick spin to settle down the coating solution using a plate centrifuge, plates were incubated overnight at 4° C. in a moisture chamber. On Day 2, the plates were washed with PBS using a Bluecatbio Blue®Washer (GentleSpin wash, 3 cycles, pressure=1, volume 150 uL). Blocking solution (1.0% BSA in PBS, Sigma, Catalog #A7979) was then added at 200 uL/well, and the plates were quickly spun to settle down blocking buffer and incubated in cell culture incubator at 37° C. and 5% CO2 for 1 hour. The plates were then washed with 0.1% BSA in PBS using a Bluecatbio Blue®Washer (GentleSpin wash, 3 cycles, pressure=1, volume 150 uL). RPMI8866 cells suspended in assay medium (1 mM MgCl2 25 mM HEPES and 50% human serum, Sigma, Catalog #H4522) at a density of 1.0×10^6 cells/mL were added at 100 uL/well. Each compound evaluated was prepared as a DMSO stock solution. Test compounds were evaluated with a 9-point serial dilution curve (1000, 333.3, 111.1, 55.6, 27.8, 13.9, 6.9, 2.3, and 0.77 nM)) and were added to the plates using a Tecan D.30e Digita dispenser, the dispensed stock is 100 nL and the final DMSO concentration is 0.1%. Potent compounds were re-evaluated at a new 9-point serial dilution curve (100, 33.3, 11.1, 5.6, 2.8, 1.4, 0.69, 0.23, and 0.08 nM). Each titration curves were performed in triplicate on the same plate, and most of compounds were retested in different dates multiple times. The plates were shaken at 300 rpm on orbital plate shaker for 3 minutes to mix the cells and compounds, quickly spun to settle the cells and solution, and incubated in cell culture incubator at 37° C. and 5% CO2. After 1 hour incubation, the unbound cells were washed away with RPMI1640 medium supplemented with 1 mM MgCl2 and 1% BSA) (wash buffer) using a Bluecatbio Blue®Washer (MagbeadsSpin wash, 1 cycle, pressure 1, volume=150 uL). After wash buffer removal, A mixture of wash buffer/CellTiter-Glo® Reagent (Pormega, catalog #G7573) at 1:1 (V/V) was added at volume of 100 uL to each well. The plates were placed in a chamber at 25° C. and incubated for 30 minutes. Luminescence was recorded using a Envision plate reader 2105 according to CellTiter-Glo protocol.
The mean luminescence signals from negative control wells without MadCAM-1 coating and compound treatment (cells only) was defined as 100% binding inhibition, and the mean luminescence signals from positive control wells with MadCAM-1 coating but without compound treatment (MadCAM-1 and cells only) was defined as 0% binding inhibition. The luminescence signals from other compound treated wells were normalized in percentage scale accordingly. The normalized mean % inhibition data were plotted against logarithmic compound concentration in nanomolar and were fitted with 4-parameter logistic model to obtain IC50 for each compound.

SMILES	EC50 [nM]
Cc1cc2cc(c1F)[C@H](CC(=O)O)NC(=O)[C@@H](n1cc(CCN3CC(F)C3)c(C(F)(F)F)cc1=O)c1cc(ccc1F)COc1cc(C#N)cc(C)c1-2 (single isomer, unassigned) [Example 54]	27
Cc1cc2cc(c1F)[C@H](CC(=O)O)NC(=O)[C@@H](n1cc(CCN3CC(F)(F)C3)c(C(F)(F)F)cc1=O)c1cc(ccc1F)COc1cccc(C)c1-2 (single isomer, unassigned) [Example 53]	11
COC1CN(c2cc(C)c3c(c2)Oc2ccc(F)c(c2)[C@H](n2cc(CCN4CC(F)C4)c(C(F)(F)F)cc2=O)C(=O)N[C@@H](CC(=O)O)c2cc-3cc(C)c2F)C1 (single isomer, unassigned) [Example 41]	21
Cc1cc(C)c2c(c1)Oc1cccc(c1)[C@H](n1cc(CCN3CC(F)C3)c(C(F)(F)F)cc1=O)C(=O)N[C@@H](CC(=O)O)c1cc-2cc(C(F)(F)F)c1F (relative stereo) [Example 4, [(14R*,17S)-19-fluoro-14-{5-[2-(3-fluoroazetidin-1-yl)ethyl]-2-oxo-4-(trifluoromethyl)pyridin-1-yl}-3,5-dimethyl-15-oxo-20-(trifluoromethyl)-8-oxa-16-azatetracyclo[16.3.1.1^{9,13}.0^{2,7}]tricosa-1(21),2(7),3,5,9,11,13(23),18(22),19-nonaen-17-yl]acetic acid]	440
Cc1ccc2c(c1C)-c1cc(C)c(F)c(c1)[C@H](CC(=O)O)NC(=O)[C@@H](n1cc(CCN3CC(F)C3)c(C(F)(F)F)cc1=O)c1cc(ccc1F)CO2 (relative stereo) [Example 51, [(15R*,18S)-13,20-difluoro-15-{5-[2-(3-fluoroazetidin-1-yl)ethyl]-2-oxo-4-(trifluoromethyl)pyridin-1-yl}-3,4,21-trimethyl-16-oxo-8-oxa-17-azatetracyclo[17.3.1.1^{10,14}.0^{2,7}]tetracosa-1(23),2(7),3,5,10,12,14(24),19,21-nonaen-18-yl]acetic acid]	990
Cc1cc2cc(c1F)[C@H](CC(=O)O)NC(=O)[C@@H](n1cc(CCN3CC(F)C3)c(C(F)(F)F)cc1=O)c1cc(Cl)cc(c1)Oc1ccc(F)c(C)c1-2 (relative stereo) [Example 34, [(14R*,17S)-11-chloro-4,19-difluoro-14-{5-[2-(3-fluoroazetidin-1-yl)ethyl]-2-oxo-4-(trifluoromethyl)pyridin-1-yl}-3,20-dimethyl-15-oxo-8-oxa-16-azatetracyclo[16.3.1.1^{9,13}.0^{2,7}]tricosa-1(22),2(7),3,5,9,11,13(23),18,20-nonaen-17-yl]acetic acid]	23
Cc1cccc2c1-c1cc(C3CC3)c(F)c(c1)[C@H](CC(=O)O)NC(=O)[C@@H](n1cc(CCN3CC(F)C3)c(C(F)(F)F)cc1=O)c1cccc(c1)O2 (relative stereo) [Example 9, [(14R*,17S)-20-cyclopropyl-19-fluoro-14-{5-[2-(3-fluoroazetidin-1-yl)ethyl]-2-oxo-4-(trifluoromethyl)pyridin-1-yl}-3-methyl-15-oxo-8-oxa-16-azatetracyclo[16.3.1.1^{9,13}.0^{2,7}]tricosa-1(21),2(7),3,5,9,11,13(23),18(22),19-nonaen-17-yl]acetic acid]	72
Cc1ccc2cc1[C@H](n1cc(CCN3CC(F)C3)c(C(F)(F)F)cc1=O)C(=O)N[C@@H](CC(=O)O)c1cc(cc(C)c1F)-c1c(C)cccc1OC2 (single isomer, unassigned) [Example 74]	20
Cc1cc2cc(c1F)[C@H](CC(=O)O)NC(=O)[C@@H](n1cc(CCN3CC(F)C3)c(C(F)(F)F)cc1=O)c1cc(ccc1F)Oc1cc(C3COC3)cc(C)c1-2 (single isomer, unassigned) [Example 57]	2.6
Cc1cc2cc(c1F)[C@H](CC(=O)O)NC(=O)[C@@H](n1cc(CCCN(C)C)c(C(F)(F)F)cc1=O)c1cc(ccc1F)Oc1cccc(C)c1-2 (relative stereo) [Example 20, [(14R*,17S)-14-{5-[3-(dimethylamino)propyl]-2-oxo-4-(trifluoromethyl)pyridin-1-yl}-12,19-difluoro-3,20-dimethyl-15-oxo-8-oxa-16-azatetracyclo[16.3.1.1^{9,13}.0^{2,7}]tricosa-1(22),2(7),3,5,9,11,13(23),18,20-nonaen-17-yl]acetic acid]	0.08
Cc1cc2cc(c1F)[C@H](CC(=O)O)NC(=O)[C@@H](n1cc(CCN3CC(F)C3)c(C(F)(F)F)cc1=O)c1cc(ccc1F)Oc1cc(Cl)cc(C)c1-2 (relative stereo) [Example 55, [(14R*,17S)-5-chloro-12,19-difluoro-14-{5-[2-(3-fluoroazetidin-1-yl)ethyl]-2-oxo-4-(trifluoromethyl)pyridin-1-yl}-3,20-dimethyl-15-oxo-8-oxa-16-azatetracyclo[16.3.1.1^{9,13}.0^{2,7}]tricosa-1(22),2(7),3,5,9,11,13(23),18,20-nonaen-17-yl]acetic acid]	4
Cc1cccc2c1-c1cc(c(C)s1)[C@H](CC(=O)O)NC(=O)[C@@H](n1cc(CCN3CC(F)C3)c(C(F)(F)F)cc1=O)c1cc(ccc1F)O2 (single isomer, unassigned) [Example 72]	16
